Data on seven compounds can be found in patent US8889876B2, “Histone deacetylase inhibitors and uses thereof” (Jiangsu Hengyi Pharmaceutical Co., Ltd., priority 2008, dated 2014).

In brackets after ≈: the same amount, converted by molar mass.

Assay [1] relates to histone deacetylase. As to the kind of experiment: in vitro inhibition activity on histone deacetylase (rat liver homogenate, MAL fluorescent substrate). The format is biochemical, rats. The note with it: n = 4, 37° C., 16 hours. The protocol:
A 96-well plate (black) for determining […] is made by Costar Company of U.S. The histone deacetylase is obtained by homogenization of liver of rats. The histone deacetylase reacts with small molecular fluorescent substrate MAL such that the substrate MAL is deacetylated to become ML.
The compound to be detected is dissolved with 200 μL of DMSO. The stock solution of the compound to be detected is diluted with PBS to a concentration of the working solution. The histone deacetylase, the MAL fluorescent substrate and the compound to be detected are mixed in a water bath at 37° C. and reacted 16 hours. The final concentration of the compound to be detected is: MS275 and its similar compound: 10, 100 μmol/.
The reaction solution is extracted with ethyl acetate. The extract is pumped in vacuum and thereto added 110 μL of methanol (40%). Taking 50 μL/well to a 96-well plate and making a fluorescent detection at 325/390 nm.
The negative control wherein histone deacetylase is not added to the reaction is 100% inhibition. The control that only contains histone deacetylase without any inhibitor is the background (0% inhibition). The inhibition rate of the sample to be detected=(the detected fluorescent value−the background)/(the fluorescent value of the negative control−background)×100%
The inhibition rate and the standard deviation in the results are the average inhibition percentage and the standard deviation of each parallel well in each dosage group.

The test system of assay [2] is K562: human chronic myeloid leukemia cell strain. As to the kind of experiment: MTT cytotoxicity to tumor cell strains, K562. The format is cell-based. The note with it: for IC50: Homo sapiens, read-out: Cell activity (IC50, μg/ml) K562. The protocol: (§1) The cytotoxicity of samples to tumor cell strains is determined through MTT.
The subject of assay [3] is A549 (human lung adenocarcinoma cells). As to the kind of experiment: MTT cytotoxicity to tumor cell strains, A549. The note with it: for IC50: Homo sapiens, read-out: Cell activity (IC50, μg/ml) A549. The format is cell-based. The protocol:
as §1

In assay [4] the test system is Hut 78 (T-cell Leukemia cell). Put plainly: MTT cytotoxicity to tumor cell strains, Hut 78. The format is cell-based. The settings on record: Hut 78, MTT; for IC50: Homo sapiens, HuT78, read-out: Cell activity (IC50, μg/ml) Hut 78. The protocol:
as §1

Assay [5] concerns Hut78 T-cell Leukemia cell. As to the kind of experiment: CCK-8 proliferation inhibition, Hut78. Type of assay: cell-based. The settings on record: for inhibition at 10 µM / inhibition at 100 µM: Homo sapiens, read-out: Hut-78 (inhibition %); for inhibition at 10 µM: HuT78, 10 μM; for inhibition at 100 µM: HuT78, 100 μM. An outline of the steps: (§2)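 Inhibition rates were obtained by CCK-8 assay after treating cells with each compound at 100 μM or 10 μM.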

Assay [6] concerns PANC-1 human pancreatic cancer cells. As to the kind of experiment: CCK-8 proliferation inhibition, PANC-1. The format is cell-based. The settings on record: for inhibition at 10 µM / inhibition at 100 µM: Homo sapiens; for inhibition at 10 µM: PANC-1, 10 μM; for inhibition at 100 µM: PANC-1, 100 μM. An outline of the steps:
as §2

In assay [7] the test system is Jurkat E6-1 human T-cell lymphoma. Put plainly: CCK-8 proliferation inhibition, Jurkat E6-1. Type of assay: cell-based. The note with it: for inhibition at 10 µM / inhibition at 100 µM: Homo sapiens; for inhibition at 10 µM: Jurkat E6.1, 10 μM; for inhibition at 100 µM: Jurkat E6.1, 100 μM. An outline of the steps: as §2
The subject of assay [8] is K562 human chronic myeloid leukemia cells. Put plainly: CCK-8 proliferation inhibition, K562. The settings on record: for inhibition at 10 µM / inhibition at 100 µM: Homo sapiens; for inhibition at 10 µM: K562, 10 μM; for inhibition at 100 µM: K562, 100 μM. Type of assay: cell-based. The essentials: as §2
In assay [9] the test system is A549 human lung cancer cells. As to the kind of experiment: CCK-8 proliferation inhibition, A549. Type of assay: cell-based. The settings on record: CCK-8 method; for inhibition at 10 µM / inhibition at 100 µM: Homo sapiens, A549. An outline of the steps: as §2
On the technique in general: Tetrazolium dyes change colour on reduction, which living cells bring about.

The test system of assay [10] is MDA-MB-435s human breast cancer cells. Put plainly: CCK-8 proliferation inhibition, MDA-MB-435s. The settings on record: CCK-8 method; for inhibition at 10 µM / inhibition at 100 µM: Homo sapiens, MDA-MB-435S. Type of assay: cell-based. The essentials:
as §2

Assay [11] relates to Hep3B2.1-7 human liver cancer cells. Put plainly: CCK-8 proliferation inhibition, Hep3B2.1-7. The format is cell-based. The note with it: CCK-8 method; for inhibition at 10 µM / inhibition at 100 µM: Homo sapiens, Hep3B. The essentials: as §2
The subject of assay [12] is PC-3 human prostate cancer. Put plainly: CCK-8 proliferation inhibition, PC-3. The settings on record: CCK-8 method; for inhibition at 10 µM / inhibition at 100 µM: Homo sapiens. Type of assay: cell-based. An outline of the steps:
as §2

The subject of assay [13] is Colo320 human rectal cancer cells. Put plainly: CCK-8 proliferation inhibition, Colo320. The settings on record: CCK-8 method; for inhibition at 10 µM / inhibition at 100 µM: Homo sapiens, COLO 320. The format is cell-based. An outline of the steps: as §2
In assay [14] the test system is histone deacetylase. Put plainly: in vitro inhibition of histone deacetylase by HDAC inhibitor screening kit (Biovision K340-100). The format is biochemical. The protocol: An assay for determining the in vitro inhibition activity of the compound on histone deacetylase is conducted according to the specification of HDAC inhibitor screeing kid (Biovision Company/Catalog #K340-100). […]

In the case of `Nc1ccccc1CNC(=O)c1ccc(CNC(=O)OCc2cccnc2)cc1` [V-1, N-(2-aminobenzyl)-4-[(3-pyridylmethoxyacyl)aminomethyl]benzamide], the “inhibition rate % average number” value in the assay with histone deacetylase [1] (dosage 10 μmol/L) stood at 0.479%; in the assay with histone deacetylase [1] (dosage 100 μmol/L), 0.293%. The results for the IC50 in assay [2], in [3] and in assay [4] were above 100 µg/mL, above 100 µg/mL and 12.5 µg/mL (≈ 32 µM), respectively.
For the compound `O=C(NCc1ccc(C(=O)Nc2ccccn2)cc1)OCc1cccnc1` [V-2, N-(2-pyridyl)-4-[(3-pyridylmethoxyacyl)aminomethyl]benzamide], the “inhibition rate % average number” value in the assay with histone deacetylase [1] (dosage 10 μmol/L) is −0.124%; in the assay on histone deacetylase [1] (dosage 100 μmol/L), 0.080%. Also, the IC50 in assay [2] was above 100 µg/mL; in assay [3], above 100 µg/mL; in [4], 76.2 µg/mL (≈ 210 µM).
As for `O=C(NCc1ccc(C(=O)Nc2cccnc2)cc1)OCc1cccnc1` [V-3, N-(3-pyridyl)-4-[(3-pyridylmethoxyacyl)aminomethyl]benzamide], the entries for the “inhibition rate % average number” value in the assay on histone deacetylase [1] (dosage 10 μmol/L) and with histone deacetylase [1] (dosage 100 μmol/L) were 0.170% and 0.481%, respectively. Moreover, the IC50 was above 100 µg/mL in assay [2], above 100 µg/mL in assay [3] and 38.8 µg/mL (≈ 107 µM) in assay [4].
For the compound `COc1cc(/C=C/C(=O)NCc2ccc(C(=O)Nc3cccnc3N)cc2)cc(OC)c1OC` [V-34, N-(2-amino-3-pyridyl)-4-[(3,4,5-trimethoxycinnamoyl)aminomethyl]benzamide], the IC50 in assay [2] was above 100 µg/mL; in assay [3], above 100 µg/mL; in [4], 68.5 µg/mL (≈ 148 µM). Moreover, the inhibition at 10 µM in assay [5] was 9.9%; in assay [6], 9.2%; in assay [7], 4.7%; in assay [8], 12.8%; in assay [9] (compound concentration 10 μM), -7.4%; in assay [10] (compound concentration 10 μM), 21.5%. Also, the inhibition at 10 µM in assay [11] (compound concentration 10 μM) amounted to 1%; in [12] (compound concentration 10 μM), 7%; in assay [13] (compound concentration 10 μM), 7.3%. The inhibition at 100 µM was determined as 53.1% in assay [5]; 4% in assay [6]; 52.7% in [7]; 61.2% in assay [8]; 6.2% in assay [9] (compound concentration 100 μM); 42.9% in assay [10] (compound concentration 100 μM). Also, the inhibition at 100 µM in assay [11] (compound concentration 100 μM) came to 28.1%; in [12] (compound concentration 100 μM) it was 40.2%; in assay [13] (compound concentration 100 μM), 5.9%.
Turning to `Nc1ncccc1NC(=O)c1ccc(CNC(=O)/C=C/c2ccc([N+](=O)[O-])cc2)cc1` [V-36, N-(2-amino-3-pyridyl)-4-[(4-nitrocinnamoyl)aminomethyl]benzamide], the IC50 in assay [2] is above 100 µg/mL; in [3] it was above 100 µg/mL; in assay [4], 17.1 µg/mL (≈ 40.9 µM). The inhibition at 10 µM in [5] stood at 8.1%; in assay [6] it was 20.8%; in [7], 12.5%; in [8], 34.1%; in assay [9] (compound concentration 10 μM), 2.4%; in assay [10] (compound concentration 10 μM) it was 30.8%. Further, the inhibition at 10 µM was 11.3% in [11] (compound concentration 10 μM), -9.4% in [12] (compound concentration 10 μM) and 7.9% in assay [13] (compound concentration 10 μM). The inhibition at 100 µM amounted to 60% in assay [5]; 39.5% in [6]; 83.3% in assay [7]; 64.8% in [8]; 12% in [9] (compound concentration 100 μM); 61.2% in assay [10] (compound concentration 100 μM). In addition, the figures for the inhibition at 100 µM in [11] (compound concentration 100 μM), in assay [12] (compound concentration 100 μM) and in [13] (compound concentration 100 μM) were 40.6%, 22.1% and 14.1%, respectively.
As to “N-(2-amino-3-pyridyl)-4-[(4-methoxybenzyloxyacyl)aminomethyl]benzamide [V-11]”, the results for the “Inhibition rate(%)” value in the assay on histone deacetylase [14] (3.91 μM), with histone deacetylase [14] (62.5 μM) and with histone deacetylase [14] (2 mM) were 6.5%, 22.1% and 39.2%, respectively. Besides, the “Hut-78 (inhibition %)” value in [5] (10 μM) is 10.7%; in assay [5] (100 μM), 60.3%. Moreover, the “PANC-1 (inhibition %)” value in assay [6] (10 μM) was determined as 1.1%; in assay [6] (100 μM) it was 35.2%. For the same compound, the “Jurkat E6-1 (inhibition %)” value in assay [7] (10 μM) amounted to 26.4%; in [7] (100 μM) it was 91.0%. Moreover, the “K562 (inhibition %)” value in [8] (10 μM) amounted to 29.7%; in assay [8] (100 μM), 82.6%. In addition, the “A549 (inhibition %)” value in assay [9] (compound concentration 10 μM) was −7.4%; in [9] (compound concentration 100 μM) it was 24.9%. For the same compound, the “435s(inhibition %)” value in assay [10] (compound concentration 10 μM) is −16.5%; in assay [10] (compound concentration 100 μM), 85.4%. For the same compound, the “Hep3B (inhibition %)” value in assay [11] (compound concentration 10 μM) was 8.1%; in assay [11] (compound concentration 100 μM), 53.2%. For the same compound, the “PC-3 (inhibition %)” value in assay [12] (compound concentration 10 μM) is 8.1%; in assay [12] (compound concentration 100 μM), 49.8%. Besides, the “Colo320 (inhibition %)” value in assay [13] (compound concentration 10 μM) came to 8.9%; in assay [13] (compound concentration 100 μM), 48.5%.
As to “N-(2-amino-4-pyridyl)-4-[(2-naphthylmethoxyacyl)aminomethyl]benzamide [V-24]”, the “inhibition rate % average number” value in the assay with histone deacetylase [1] (dosage 10 μmol/L) turned out to be 46.547%; with histone deacetylase [1] (dosage 100 μmol/L), 70.300%. In addition, the “Cell activity (IC50, μg/ml) K562” value in assay [2] was 6.23 µg/mL. The “Cell activity (IC50, μg/ml) A549” value in [3] was 7.11 µg/mL. Besides, the “Cell activity (IC50, μg/ml) Hut 78” value in assay [4] came to 0.30 µg/mL. For the same compound, the “Hut-78 (inhibition %)” value was found to be 26.2% in [5] (10 μM) and 20.7% in assay [5] (100 μM). Besides, the “PANC-1 (inhibition %)” value was 8.0% in [6] (10 μM) and 7.8% in assay [6] (100 μM). The figures for the “Jurkat E6-1 (inhibition %)” value in assay [7] (10 μM) and in [7] (100 μM) were 37.2% and 22.1%, respectively. In addition, the “K562 (inhibition %)” value is 42.8% in assay [8] (10 μM) and 29.7% in [8] (100 μM). Also, the “A549 (inhibition %)” value in assay [9] (compound concentration 10 μM) turned out to be 48.7%; in assay [9] (compound concentration 100 μM) it was 65.7%. Besides, the “435s(inhibition %)” value came out at 49.8% in [10] (compound concentration 10 μM) and 50.4% in [10] (compound concentration 100 μM). The “Hep3B (inhibition %)” value in [11] (compound concentration 10 μM) is recorded as 24.8%; in [11] (compound concentration 100 μM), 13.5%. For the same compound, the results for the “PC-3 (inhibition %)” value in assay [12] (compound concentration 10 μM) and in assay [12] (compound concentration 100 μM) were 5.1% and 3.4%, respectively. In addition, the “Colo320 (inhibition %)” value was −2.3% in assay [13] (compound concentration 10 μM) and −17.1% in [13] (compound concentration 100 μM).

In general, inhibition refers to the drop in the measured response relative to a control, in per cent.
